According to US12486216B2, “Processes for preparing nitrosylated propanediols, compositions comprising the same, and medical uses thereof” (ATTGENO AB, priority 2018, dated 2025):

Legend:
[1] = test system: anesthetised pigs; experiment: Pharmacological investigation of 1,2-PDNO—R, 1,2-PDNO—S and 1,3-PDNO in anesthetised pigs; assay type: in vivo, pig; conditions: pH approximately 8
Description: Prior to experimentation, ethical approval was received from Linköping's regional animal ethics committee (Linköping, Sweden; approval number 953). In brief, 2 male and female pigs (a crossbreed between Swedish country breed, Hampshire and Yorkshire; 3-4 months old; 24-26 kg) were premedicated with azaperone at the farm and transported to the laboratory. At the laboratory, anaesthesia was induced with a mixture of tiletamine, zolazepam and azaperone (intramuscular injection). Propofol was given in a peripheral venous catheter in an ear vein, if needed. Bolus doses of atropine and cefuroxime were administered intravenously. The animals were endotracheally intubated and mechanically ventilated (5 cm H2O in positive end-expiratory pressure, minute ventilation was adjusted to normoventilation). General anaesthesia was maintained with propofol and fentanyl via continuous intravenous infusions, and additional bolus doses were given if needed. Ringer's acetate and glucose solutions were continuously administered intravenously to substitute for fluid loss. Heparin was given as an intravenous bolus dose after the surgical instrumentation. After the experiments the animals were killed in general anaesthesia with a propofol injection followed by a rapid intravenous injection of potassium chloride (40 mmol), and asystolia was confirmed.
The animals were instrumented with an arterial catheter in the right carotid artery for measurement of systemic arterial blood pressure and heart rate. A sheath was placed in the right external jugular vein for introduction of a pulmonary-arterial catheter. This catheter was used for continuous measurement of pulmonary arterial blood pressure, semi-continuous cardiac output and intermittent pulmonary wedge pressure. […] Respiratory gases, pressures and volumes were measured at the endotracheal tube. Respiratory and hemodynamic variables were measured by a Datex AS/3 (Helsinki, Finland) and data were collected by a computerised system (MP100 or MP150/Acknowledge 3.9.1, BIOPAC systems, Goleta, CA, USA). […]

[2] = Stability of non-aqueous mixtures of the nitrites in 1,2-propanediol (GC); assay type: physicochemical
Experimental: Three different concentrations of 1-(nitrosooxy)-propan-2-ol and 2-(nitrosooxy)-propan-1-ol in 1,2-propanediol were prepared and stored in both a refrigerator (5° C.) and freezer (−20° C.). Aliquots of each solution were taken periodically and analysed by GC to determine the concentration of 1-(nitrosooxy)-propan-2-ol and 2-(nitrosooxy)-propan-1-ol.
The results of the GC analysis are shown in the table below (column: Rxi-5Sil MS, 20 m×0.18 mm, […]; carrier: He; Inlet: 250° C., split ratio 100:1; constant flow: 1.0 mL/min; oven temperature profile: 40° C. (3 min), 10° C./min, 80° C. (0 min), 30° C./min, 250° C. (3 min); FID: 300° C., H2 flow 30 mL/min, air flow 400 mL/min, make-up flow (N2) 25 mL/min; internal standard: 1,1,1,3,5,5,5-heptamethyl trisiloxane): […]

[3] = test system: anesthetised and mechanically ventilated pigs with U46619-induced pulmonary hypertension; experiment: In vivo study in pigs with U46619-induced pulmonary hypertension, PDNO infusion vs inhaled NO; conditions: for mean pulmonary arterial pressure / pulmonary vascular resistance: median (interquartile range)
[4] = 10-15 min iv infusion (1,2-PDNO—R and —S 43, 1,3-PDNO 30 nmol kg^−1 min^−1) into sodium bicarbonate carrier
[5] = Freezer (−20° C.), 10 days, Low conc.
[6] = Freezer (−20° C.), 10 days, Medium conc.
[7] = Freezer (−20° C.), 14 days, High conc.
[8] = Freezer (−20° C.), 27 days, Low conc.
[9] = Freezer (−20° C.), 27 days, Medium conc.
[10] = Freezer (−20° C.), 28 days, High conc.
[11] = Freezer (−20° C.), 56 days, High conc.
[12] = Freezer (−20° C.), 64 days, Low conc.
[13] = Freezer (−20° C.), 64 days, Medium conc.
[14] = Freezer (−20° C.), 84 days, High conc.
[15] = Freezer (−20° C.), 84 days, Low conc.
[16] = Freezer (−20° C.), 84 days, Medium conc.
[17] = Freezer (−20° C.), Start, High conc.
[18] = Freezer (−20° C.), Start, Low conc.
[19] = Freezer (−20° C.), Start, Medium conc.
[20] = Refrigerator (5° C.), 10 days, Low conc.
[21] = Refrigerator (5° C.), 10 days, Medium conc.
[22] = Refrigerator (5° C.), 14 days, High conc.
[23] = Refrigerator (5° C.), 27 days, Low conc.
[24] = Refrigerator (5° C.), 27 days, Medium conc.
[25] = Refrigerator (5° C.), 28 days, High conc.
[26] = Refrigerator (5° C.), 56 days, High conc.
[27] = Refrigerator (5° C.), 64 days, Low conc.
[28] = Refrigerator (5° C.), 64 days, Medium conc.
[29] = Refrigerator (5° C.), 84 days, High conc.
[30] = Refrigerator (5° C.), 84 days, Low conc.
[31] = Refrigerator (5° C.), 84 days, Medium conc.
[32] = Refrigerator (5° C.), Start, High conc.
[33] = Refrigerator (5° C.), Start, Low conc.
[34] = Refrigerator (5° C.), Start, Medium conc.
[35] = U46619 infusion alone, data not shown
[36] = PDNO iv 15-60 nmol kg^−1 min^−1 or inhaled NO 5-40 ppm, during U46619
[37] = PDNO or inhaled NO during U46619, data not shown

Molecule	Concentration [2, 5]	Concentration [2, 6]	Concentration [2, 7]	Concentration [2, 8]	Concentration [2, 9]	Concentration [2, 10]	Concentration [2, 11]	Concentration [2, 12]	Concentration [2, 13]	Concentration [2, 14]	Concentration [2, 15]	Concentration [2, 16]	Concentration [2, 17]	Concentration [2, 18]	Concentration [2, 19]	Concentration [2, 20]	Concentration [2, 21]	Concentration [2, 22]	Concentration [2, 23]	Concentration [2, 24]	other results
O=NOCCCO [1,3-PDNO, 1-(nitrosooxy)propan-3-ol]																					Effect on mean pulmonary arterial pressure [1, 4]: decreased; Effect on mean systemic arterial pressure [1, 4]: decreased; Vasodilation ([1]; 10-15 min iv infusion into sodium bicarbonate carrier): caused systemic and pulmonary vasodilation
CC(O)CON=O (stereo not shown) [1-Nitrite, 1-(nitrosooxy)-propan-2-ol]	0.08 % w/w	0.81 % w/w	3.76 % w/w	0.07 % w/w	0.74 % w/w	3.72 % w/w	3.55 % w/w	0.07 % w/w	0.74 % w/w	3.50 % w/w	0.08 % w/w	0.78 % w/w	3.75 % w/w	0.08 % w/w	0.81 % w/w	0.08 % w/w	0.86 % w/w	3.72 % w/w	0.09 % w/w	0.81 % w/w	Concentration [2, 25]: 3.67 % w/w; Concentration [2, 26]: 3.47 % w/w; Concentration [2, 27]: 0.07 % w/w; Concentration [2, 28]: 0.73 % w/w; Concentration [2, 29]: 3.33 % w/w; Concentration [2, 30]: 0.07 % w/w; Concentration [2, 31]: 0.77 % w/w; Concentration [2, 32]: 3.75 % w/w; Concentration [2, 33]: 0.08 % w/w; Concentration [2, 34]: 0.81 % w/w
CC(CO)ON=O (stereo not shown) [2-Nitrite, 2-(nitrosooxy)-propan-1-ol]	0.06 % w/w	0.63 % w/w	2.89 % w/w	0.06 % w/w	0.57 % w/w	2.93 % w/w	2.74 % w/w	0.06 % w/w	0.58 % w/w	2.71 % w/w	0.06 % w/w	0.62 % w/w	2.94 % w/w	0.06 % w/w	0.61 % w/w	0.06 % w/w	0.67 % w/w	2.91 % w/w	0.07 % w/w	0.63 % w/w	Concentration [2, 25]: 2.90 % w/w; Concentration [2, 26]: 2.69 % w/w; Concentration [2, 27]: 0.06 % w/w; Concentration [2, 28]: 0.57 % w/w; Concentration [2, 29]: 2.59 % w/w; Concentration [2, 30]: 0.06 % w/w; Concentration [2, 31]: 0.60 % w/w; Concentration [2, 32]: 2.94 % w/w; Concentration [2, 33]: 0.06 % w/w; Concentration [2, 34]: 0.61 % w/w
CCCCCC(O)C=CC1C2CC(CO2)C1CC=CCCCC(=O)O (stereo not drawn) [U46619, 9,11-dideoxy-9α, 11α-methanoepoxy PGF2α]																					Effect on arterial partial pressure of oxygen [3, 35]: slightly decreased; Effect on cardiac output [3, 35]: slightly decreased; mean pulmonary arterial pressure ([3]; during iv U46619 60-150 ng kg^−1 min^−1, before NO inhalation): 43 (37-48) mmHg; mean pulmonary arterial pressure ([3]; during iv U46619 60-150 ng kg^−1 min^−1, before PDNO infusion): 43 (41-46) mmHg; pulmonary vascular resistance ([3]; during iv U46619, before NO inhalation): 8.3 (6.7-11.7) mmHg min l^−1; pulmonary vascular resistance ([3]; during iv U46619, before PDNO infusion): 9.8 (7.7-12.5) mmHg min l^−1
nitric oxide [inhaled NO]																					Effect on pulmonary arterial pressure ([3]; PDNO iv 15-60 nmol kg^−1 min^−1 in sodium bicarbonate carrier or inhaled NO 5-40 ppm, during U46619): significantly reduced; Effect on methemoglobin concentration ([3]; PDNO iv 15-60 nmol kg^−1 min^−1 or inhaled NO 5-40 ppm, arterial blood): No drug significantly affected; Effect on mean arterial pressure [3, 36]: No drug significantly affected; Effect on pulmonary vascular resistance [3, 36]: significantly reduced; Effect on systemic vascular resistance [3, 36]: No drug significantly affected; Effect on arterial partial pressure of oxygen [3, 37]: increased this variable towards normal; Effect on cardiac output [3, 37]: no drug significantly changed; Pulmonary-to-systemic vascular resistances ratio compared to the PDNO group ([3]; at the highest doses, data not shown): slightly lower; Effect on pulmonary-to-systemic vascular resistances ratio ([3]; during U46619, data not shown): significantly decreased; Trend in methemoglobin concentration ([3]; inhaled NO group, associated to dose of delivered NO): tendency for an increase
